# Tested on: human induced pluripotent stem cell-derived cardiomyocytes (iPS-CMs)
# Assay: simultaneous field potential (MEA), impedance (IDE) and optical recording of cardiac tissue pre-/post-drug exposure and after wash-out
# Assay type: cell-based
# Excerpt: Measurements were repeated once more after washing the culture to flush the blebbistatin from the system. FIGS. 7A-7C show the field potential (left) and corresponding impedance changes (right) prior to exposure to blebbistatin (FIG. 7A), after exposure to blebbistatin (FIG. 7B) and following flushing of blebbistatin from the system (FIG. 7C).
# Prior to compound addition, the tissue beat spontaneously and rhythmically at a rate of 14 bpm, as shown from both the FP profile and impedance profile of FIG. 7A.
# Human iPS-CMs were purchased from Cellular Dynamics International (Madison, Wis.). Cells were stored in liquid nitrogen before use. Prior to cell seeding, device culture chambers were sterilized with 70% ethanol, rinsed with autoclaved water, then incubated overnight with 40 μg/mL fibronectin (Sigma-Aldrich, St Louis, Mo.) at 37° C. Cells were seeded at a density of 120K cells/cm2 and kept in an incubator at 37° C. and 5% CO2. Media was exchanged 4 hrs after seeding, then every 48 hours subsequently.
# The MEA was connected via electrical connector(s), preferably OMNETICS™ connectors to an AlphaLab SnR multi-channel recording system (Alpha Omega, Alpharetta, Ga.) to record voltages as a function of time across all 16 electrodes of the MEA. Offline analysis of temporal differences between the 16 electrodes when voltage spikes occur generates an activation map. The activation map illustrates FP spatial propagation in the cardiac tissue monolayer across the surface area of the device.
# For measuring cardiac contraction, high-speed impedance time recording was performed using a Keysight E4990A Impedance Analyzer (Keysight Technologies Inc., Santa Rosa, Calif.) and controlled using custom LabVIEW software (National Instruments, Austin, Tex.). For each device, impedance was measured at multiple frequencies between 5 kHz and 200 kHz to determine the frequency range that gives the highest signal-to-noise ratio.
# Norepinephrine and blebbistatin were purchased from Sigma-Aldrich (St Louis, Mo., USA). Both drugs were dissolved in 0.1% dimethyl sulfoxide and stored at −20° C. Drugs were diluted to desired concentrations in cell media immediately before use. Prior to drug exposure, pre-drug electrophysiology and contraction data of the cardiac tissues on a device were collected for five minutes. Next, cell media was removed from the chamber on the device, drug was added and device was incubated at 37° C. and 5% CO2 for 15 minutes. Recording was again started with the drug. Afterwards, the drug solution was removed and the culture chamber was rinsed three times with cell media, incubated at 37° C. and 5% CO2 for another 15 minutes before performing drug wash-out measurements.
# [1] = after incubation with 10 μM, FIG. 7B
smiles,measurement,setting,value
Cc1ccc2c(c1)C(=O)C1(O)CCN(c3ccccc3)C1=N2 (stereo not shown) [blebbistatin],action potential pattern (MEA data),[1],not affected
same,"impedance recording (contraction signal, IDE)",[1],flat baseline signal
same,tissue contraction observed under an optical microscope,"after incubation with 10 μM, pre-drug spontaneous beating at 14 bpm, FIG. 7B",static
same,tissue contractility after washing out (impedance peaks and optical observation),"wash-out after 10 μM exposure, FIG. 7C",restored the tissue contractility

# From patent US10914722B2, “Sensor array and apparatus for simultaneous observation of tissue electrophysiology, contractility, and growth” (Lawrence Livermore National Security, LLC, priority 2017, dated 2021)
